Test results from publication PMC10763615, “Identification and engineering of potent cyclic peptides with selective or promiscuous binding through biochemical profiling and bioinformatic data analysis” (RSC Chemical Biology, 2023).
Like-named read-outs stand apart in the source and are kept apart here.

Columns and labels:
FGF-R1C ECD [1] = biological target: T1, FGF-R1C ECD (Homo sapiens, UniProt P11362); assay: biochemical
T1 sequence (P11362 22-376 limits assumed): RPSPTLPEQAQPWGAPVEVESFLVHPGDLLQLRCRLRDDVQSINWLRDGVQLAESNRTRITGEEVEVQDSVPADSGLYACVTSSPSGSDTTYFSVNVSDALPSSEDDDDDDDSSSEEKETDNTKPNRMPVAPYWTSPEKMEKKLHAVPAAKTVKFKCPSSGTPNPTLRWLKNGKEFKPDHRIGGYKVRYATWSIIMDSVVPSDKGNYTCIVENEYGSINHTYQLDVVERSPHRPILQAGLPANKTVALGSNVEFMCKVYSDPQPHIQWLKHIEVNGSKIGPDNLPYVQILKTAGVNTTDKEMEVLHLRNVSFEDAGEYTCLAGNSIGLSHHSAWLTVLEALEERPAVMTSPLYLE
Summary of the method: (§1)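 Biolayer interferometry with biotinylated FGF-R ECD on streptavidin biosensors in PBS pH 7.4, 0.05% Tween-20, 0.01% BSA. Multi-concentration: purified peptide dilution series fitted to a multi-point KD model.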

FGF-R3C ECD [2] = biological target: T2, FGF-R3C ECD (Homo sapiens, UniProt P22607); assay: biochemical
T2 sequence (P22607 23-375 limits assumed): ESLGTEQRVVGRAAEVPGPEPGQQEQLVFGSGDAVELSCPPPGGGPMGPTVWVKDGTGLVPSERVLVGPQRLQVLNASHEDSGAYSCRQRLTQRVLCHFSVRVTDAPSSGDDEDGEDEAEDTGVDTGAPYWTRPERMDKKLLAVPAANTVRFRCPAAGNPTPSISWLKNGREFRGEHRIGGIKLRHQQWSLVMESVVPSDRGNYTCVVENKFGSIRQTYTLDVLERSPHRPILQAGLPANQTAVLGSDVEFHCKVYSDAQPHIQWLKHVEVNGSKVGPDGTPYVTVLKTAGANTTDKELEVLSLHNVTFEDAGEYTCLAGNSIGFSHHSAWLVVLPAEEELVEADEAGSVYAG
Summary of the method: as §1

FGF-R4 ECD [3] = biological target: T3, FGF-R4 ECD (Homo sapiens, UniProt P22455); assay: multi-concentration BLI of purified peptides; type: binding; settings: purified NNK library peptides
T3 construct: DNA constructs for the extracellular domain (ECD) of human FGF-; HPC4 (C); made in house; host or cells: HEK 293-6E
T3 sequence (P22455 22-369 limits assumed): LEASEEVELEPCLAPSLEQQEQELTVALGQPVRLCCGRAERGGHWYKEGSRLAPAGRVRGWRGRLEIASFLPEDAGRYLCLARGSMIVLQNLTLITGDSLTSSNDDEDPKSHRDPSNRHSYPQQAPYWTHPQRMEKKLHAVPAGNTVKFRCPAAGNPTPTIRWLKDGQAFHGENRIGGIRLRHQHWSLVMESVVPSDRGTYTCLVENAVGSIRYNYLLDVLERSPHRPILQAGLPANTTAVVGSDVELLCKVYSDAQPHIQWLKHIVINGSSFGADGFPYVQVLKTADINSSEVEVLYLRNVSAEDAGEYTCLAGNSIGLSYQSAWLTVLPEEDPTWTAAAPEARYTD
Summary of the method: as §1

FGF-R4 ECD [4] = biological target: T3, FGF-R4 ECD; assay: single concentration BLI of crude peptides; type: binding; settings: crude NNK peptides, single concentration BLI (Table S3); read-out: KD (4)
Summary of the method: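 Biotinylated FGF-R ECD on streptavidin biosensors was dipped into ~1 μM crude peptide in PBS pH7.4 with 0.05% Tween-20 and 0.01% BSA for association, then into buffer for dissociation, and followed by BLI. Fitted KD values were adjusted for peptide concentration measured by UPLC-CAD.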

[5] = biological target: T4, FGFR1c/KLB (Fc-fused human FGF-R1alpha(IIIc) with beta-klotho) (Homo sapiens, UniProt P11362); assay: AlphaScreen FGF21 competitive binding assay
T4 sequence (P11362 22-376 limits assumed): T1 sequence (P11362 22-376 limits assumed)
Protocol: Alphascreen binding assay
(§3) The competitive binding assay was carried out according to the methods detailed in Hansen. et al using
(§4) AlphaScreen.3 All reagents and samples were prepared in assay buffer: 40mM Hepes, 140mM NaCl, 1mM
(§5) CaCl2, 0,05% Tween20, pH=7.5, 0.1% BSA. In brief, recombinant human beta-klotho (R&D Systems) was
(§6) preincubated for 60 min with the ectodomain, either Fc-fused human FGF-R1alpha(IIIc), FGF-R3alpha(IIIc)
(§7) or FGF-R4 (R&D Systems), and the mixture was added to the test peptides in OptiPlate™ (PerkinElmer).
(§8) Biotinylated FGF21 and heparin were further added to each well. AlphaScreen bead mix (1:1 mix of Protein
(§9) A acceptor beads/ streptavidin-coated donor beads, PerkinElmer) were added to each well incubated
(§10) overnight at RT in the dark, and measured on a plate reader (Envision). Assays were carried out in triplicates
(§11) with concentrations ranging from 3, 10, 30, 100, 300 ,1000 and 3000 nM of peptide. No peptide control
(§12) (media only) was used as a negative control, and unlabeled FGF21 and FGF1 as positive control.
(§13) competing with biotinylated natural FGF21 ligand.

[6] = biological target: T5, FGFR3c/BKL (Fc-fused human FGF-R3alpha(IIIc) with beta-klotho) (Homo sapiens, UniProt P22607); assay: AlphaScreen FGF21 competitive binding assay
T5 sequence (P22607 23-375 limits assumed): T2 sequence (P22607 23-375 limits assumed)
Protocol: Alphascreen binding assay
as §3, §4, §5, §6, §7, §8, §9, §10, §11, §12, §13

[7] = biological target: T6, FGFR4/KLB (Fc-fused human FGF-R4 with beta-klotho) (Homo sapiens, UniProt P22455); assay: AlphaScreen FGF21 competitive binding assay
T6 sequence (P22455 22-369 limits assumed): T3 sequence (P22455 22-369 limits assumed)
Protocol: Alphascreen binding assay
as §3, §4, §5, §6, §7, §8, §9, §10, §11, §12, §13

FGF-R1C ECD [8] = biological target: T1, FGF-R1C ECD; assay: biochemical; type: binding; set-up: DNA constructs for the extracellular domain (ECD) of human FGF-; HPC4 (C); made in house; host or cells: HEK 293-6E
Summary of the method: (§2)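 BLI, streptavidin sensors loaded with biotinylated receptor ECD. Single-point: ~1 μM crude peptide, PBS pH7.4/0.05% Tween-20/0.01% BSA; association then dissociation in buffer. KD corrected for UPLC-CAD-determined concentration.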

FGF-R3C ECD [9] = biological target: T2, FGF-R3C ECD; assay: biochemical; type: binding; set-up: DNA constructs for the extracellular domain (ECD) of human FGF-; HPC4 (C); made in house; host or cells: HEK 293-6E
Summary of the method: as §2

Work on CC[C@H](C)[C@@H]1NC(=O)[C@H](C(C)C)NC(=O)[C@H](Cc2c[nH]cn2)NC(=O)[C@@H](NC(=O)[C@H](CCSC)NC(C)=O)CSSC[C@@H](C(=O)NCC(=O)N[C@@H](CO)C(=O)NCC(=O)N[C@@H](CO)C(=O)N[C@@H](CC(=O)O)C(=O)N[C@@H](Cc2ccc(O)cc2)C(=O)N[C@@H](CCCCN)C(=O)N[C@@H](CC(=O)O)C(=O)N[C@@H](CC(=O)O)C(=O)N[C@@H](CC(=O)O)C(=O)N[C@@H](CC(=O)O)C(=O)N[C@@H](CCCCN)C(N)=O)NC(=O)[C@H](Cc2ccc(O)cc2)NC(=O)[C@H](CCCNC(=N)N)NC(=O)[C@H](Cc2c[nH]c3ccccc23)NC(=O)[C@H](CO)NC(=O)[C@H](CCCNC(=N)N)NC(=O)[C@H](Cc2c[nH]c3ccccc23)NC(=O)[C@H](CC(C)C)NC1=O [4.2] yielded a Kd (FGF-R1C ECD [1]) greater than 1000 nM, a Kd (FGF-R3C ECD [2]) greater than 1000 nM and a Kd (FGF-R4 ECD [3]) of 51 nM. It also gave a Kd (FGF-R4 ECD [4]) of 93 nM, an IC50 [5] greater than 1000 nM and an IC50 [6] greater than 1000 nM. For the same compound, the IC50 [7] was 682 nM, the Kd (FGF-R1C ECD [8]) was greater than 10000 nM and the Kd (FGF-R3C ECD [9]) was greater than 10000 nM.
CSCC[C@H](NC(C)=O)C(=O)N[C@H]1CSSC[C@@H](C(=O)NCC(=O)N[C@@H](CO)C(=O)NCC(=O)N[C@@H](CO)C(=O)N[C@@H](CC(=O)O)C(=O)N[C@@H](Cc2ccc(O)cc2)C(=O)N[C@@H](CCCCN)C(=O)N[C@@H](CC(=O)O)C(=O)N[C@@H](CC(=O)O)C(=O)N[C@@H](CC(=O)O)C(=O)N[C@@H](CC(=O)O)C(=O)N[C@@H](CCCCN)C(N)=O)NC(=O)[C@H](CO)NC(=O)[C@H](CCCNC(=N)N)NC(=O)[C@H](Cc2ccccc2)NC(=O)[C@H](C)NC(=O)[C@H](CC(C)C)NC(=O)[C@H](Cc2ccc(O)cc2)NC(=O)[C@H](Cc2ccc(O)cc2)NC(=O)[C@H](C)NC(=O)[C@H](CC(C)C)NC(=O)[C@H](Cc2c[nH]cn2)NC1=O [4.3] showed a Kd (FGF-R1C ECD [1]) greater than 1000 nM, a Kd (FGF-R3C ECD [2]) greater than 1000 nM and a Kd (FGF-R4 ECD [3]) of 86 nM. The Kd (FGF-R4 ECD [4]) was 58 nM, the IC50 [5] was greater than 1000 nM and the IC50 [6] was greater than 1000 nM. The IC50 [7] was 508 nM, the Kd (FGF-R1C ECD [8]) was greater than 10000 nM and the Kd (FGF-R3C ECD [9]) was greater than 10000 nM.
Work on CSCC[C@H](NC(C)=O)C(=O)N[C@H]1CSSC[C@@H](C(=O)NCC(=O)N[C@@H](CO)C(=O)NCC(=O)N[C@@H](CO)C(=O)N[C@@H](CC(=O)O)C(=O)N[C@@H](Cc2ccc(O)cc2)C(=O)N[C@@H](CCCCN)C(=O)N[C@@H](CC(=O)O)C(=O)N[C@@H](CC(=O)O)C(=O)N[C@@H](CC(=O)O)C(=O)N[C@@H](CC(=O)O)C(=O)N[C@@H](CCCCN)C(N)=O)NC(=O)[C@H](CC(C)C)NC(=O)[C@H](Cc2c[nH]c3ccccc23)NC(=O)[C@H](C)NC(=O)[C@H](Cc2ccccc2)NC(=O)[C@H](Cc2ccccc2)NC(=O)[C@H](Cc2c[nH]c3ccccc23)NC(=O)[C@@H]2CCCN2C(=O)[C@H](Cc2c[nH]cn2)NC(=O)[C@H](CCCCN)NC(=O)[C@H](Cc2ccccc2)NC1=O [4.5] yielded a Kd (FGF-R1C ECD [1]) greater than 1000 nM, a Kd (FGF-R3C ECD [2]) greater than 1000 nM and a Kd (FGF-R4 ECD [3]) of 233 nM. The Kd (FGF-R4 ECD [4]) was 35 nM, the IC50 [5] was greater than 1000 nM and the IC50 [6] was greater than 1000 nM. It also gave an IC50 [7] of 284 nM, a Kd (FGF-R1C ECD [8]) greater than 10000 nM and a Kd (FGF-R3C ECD [9]) greater than 10000 nM.
CC[C@H](C)[C@@H]1NC(=O)[C@@H](NC(=O)[C@H](CCSC)NC(C)=O)CSSC[C@@H](C(=O)NCC(=O)N[C@@H](CO)C(=O)NCC(=O)N[C@@H](CO)C(=O)N[C@@H](CC(=O)O)C(=O)N[C@@H](Cc2ccc(O)cc2)C(=O)N[C@@H](CCCCN)C(=O)N[C@@H](CC(=O)O)C(=O)N[C@@H](CC(=O)O)C(=O)N[C@@H](CC(=O)O)C(=O)N[C@@H](CC(=O)O)C(=O)N[C@@H](CCCCN)C(N)=O)NC(=O)[C@H](Cc2ccccc2)NC(=O)[C@H](CCCNC(=N)N)NC(=O)[C@H](CCCCN)NC(=O)[C@H](Cc2c[nH]cn2)NC(=O)[C@H](C)NC(=O)[C@H](CC(C)C)NC(=O)[C@H](Cc2ccccc2)NC(=O)[C@H](CCSC)NC(=O)[C@H](CCCCN)NC1=O [4.6] gave a Kd (FGF-R1C ECD [1]) greater than 1000 nM, a Kd (FGF-R3C ECD [2]) greater than 1000 nM and a Kd (FGF-R4 ECD [3]) of 358 nM. The Kd (FGF-R4 ECD [4]) was 97 nM, the IC50 [5] was greater than 1000 nM and the IC50 [6] was greater than 1000 nM. The IC50 [7] was greater than 1000 nM, the Kd (FGF-R1C ECD [8]) was greater than 10000 nM and the Kd (FGF-R3C ECD [9]) was greater than 10000 nM.
CSCC[C@H](NC(C)=O)C(=O)N[C@H]1CSSC[C@@H](C(=O)NCC(=O)N[C@@H](CO)C(=O)NCC(=O)N[C@@H](CO)C(=O)N[C@@H](CC(=O)O)C(=O)N[C@@H](Cc2ccc(O)cc2)C(=O)N[C@@H](CCCCN)C(=O)N[C@@H](CC(=O)O)C(=O)N[C@@H](CC(=O)O)C(=O)N[C@@H](CC(=O)O)C(=O)N[C@@H](CC(=O)O)C(=O)N[C@@H](CCCCN)C(N)=O)NC(=O)[C@H](C(C)C)NC(=O)[C@H](CC(C)C)NC(=O)[C@H](CC(C)C)NC(=O)[C@H](Cc2c[nH]c3ccccc23)NC(=O)[C@H](Cc2ccc(O)cc2)NC(=O)[C@H](Cc2ccccc2)NC(=O)[C@H](CC(C)C)NC(=O)[C@H](CCCNC(=N)N)NC(=O)[C@H](CCC(=O)O)NC(=O)[C@@H]2CCCN2C1=O [4.7] gave a Kd (FGF-R1C ECD [1]) greater than 1000 nM, a Kd (FGF-R3C ECD [2]) greater than 1000 nM and a Kd (FGF-R4 ECD [3]) of 443 nM. It also gave a Kd (FGF-R4 ECD [4]) of 68 nM, an IC50 [5] greater than 1000 nM and an IC50 [6] greater than 1000 nM. The IC50 [7] was greater than 1000 nM, the Kd (FGF-R1C ECD [8]) was greater than 10000 nM and the Kd (FGF-R3C ECD [9]) was greater than 10000 nM.
For CC[C@H](C)[C@@H]1NC(=O)[C@H](Cc2c[nH]c3ccccc23)NC(=O)[C@@H]2CCCN2C(=O)[C@H](CCC(=O)O)NC(=O)[C@@H](NC(=O)[C@H](CCSC)NC(C)=O)CSSC[C@@H](C(=O)NCC(=O)N[C@@H](CO)C(=O)NCC(=O)N[C@@H](CO)C(=O)N[C@@H](CC(=O)O)C(=O)N[C@@H](Cc2ccc(O)cc2)C(=O)N[C@@H](CCCCN)C(=O)N[C@@H](CC(=O)O)C(=O)N[C@@H](CC(=O)O)C(=O)N[C@@H](CC(=O)O)C(=O)N[C@@H](CC(=O)O)C(=O)N[C@@H](CCCCN)C(N)=O)NC(=O)[C@H](CCCCN)NC(=O)[C@H](CCCCN)NC(=O)[C@H](CC(C)C)NC(=O)[C@H](C(C)C)NC(=O)[C@H](CCCCN)NC(=O)[C@H](Cc2ccc(O)cc2)NC(=O)[C@H]([C@@H](C)CC)NC(=O)[C@H]([C@@H](C)O)NC1=O [4.8], the Kd (FGF-R1C ECD [1]) was greater than 1000 nM, the Kd (FGF-R3C ECD [2]) was greater than 1000 nM and the Kd (FGF-R4 ECD [3]) was 478 nM. For the same compound, the Kd (FGF-R4 ECD [4]) was 287 nM, the IC50 [5] was greater than 1000 nM and the IC50 [6] was greater than 1000 nM. It also gave an IC50 [7] of 945 nM, a Kd (FGF-R1C ECD [8]) greater than 10000 nM and a Kd (FGF-R3C ECD [9]) of 1250 nM.
